US20090196912A1, “Pyridinylamines” (GPC Botech AG, priority 2004, published 2009)

What follows are molecules tested against cRaf (Homo sapiens, UniProt P04049) (assay: Generic kinase assay (33P-ATP, Myelin Basic Protein)). Details: 1 h; class symbol: % inhibition at 10 μM or IC50; read-out: Inhibitory effect on target cRaf.
Assay type: biochemical
Description: (§1) In order to determine the inhibitory effect of the compounds of the subject invention on various target enzymes a generic kinase assay was established.
(§2) Reactions were performed in 96-Well U-bottom microtiter plates (Greiner Bio-One; Frickenhausen/Germany, Cat. No. 650161), hereinafter designated “Assay Plates”. 10 μl of a solution comprising 40 μM Myelin Basic Protein (Invitrogen; Carlsbad, Calif./USA; Cat. No. 13228-010) and 4 μM ATP in three-fold concentrated Reaction Buffer (60 mM Tris-HCl, pH 7.5; 30 mM MgCl2; 3 mM dithiothreitol) were added into each well of the Assay Plate. 10 μl of serial dilutions of the compounds of the subject invention, dissolved in 4% DMSO, were then added into each well, except for Positive Control. Wells (C+ wells) and Negative Control Wells (C− wells). 10 μl of 4% DMSO without compounds were added to C+ and C− wells. 10 μl of a 500 mM solution of EDTA in water was then added to C− wells. Then 10 μl of a solution containing 50 μCi/ml Adenosine 5′-[γ-^33P]triphosphate in water was added to each well. To start the reaction 10 μl of the kinase to be assayed was added to each well. The optimal amount of kinase in the assay was determined to be the amount which yields to a turn-over of about 10% of ATP. Assay Plates were incubated for one hour at room temperature. Then 10 μl of a 500 mM solution of EDTA in water was added to each well except C− wells. Samples were now ready for measurement.
(§3) Measurements were preformed in 96-Well MAPH-Filter Plates (Millipore; Billerica, Mass./United States; Cat. No. MAPHNOB50), hereinafter designated “Measurement Plates”. Measurement Plates were washed with 200 μl of a 0.75% H3PO4 solution per well. The H3PO4 solution was exhausted using a Millipore vacuum station. 60 μl of a 0.75% H3PO4 solution was then added into each well, followed by the transfer of 30 μl of each well from the Assay Plate into the corresponding wells of the Measurement Plate. The Measurement Plate was incubated for 30 minutes at room temperature. Thereafter each well was washed three times with 200 μl of a 0.75% H3PO4 solution using a Millipore vacuum station. 20 μl of scintillation liquid (Supermix Liquid Szintillator; Perkin Elmer, Wellesley. Mass./United States; Cat. No. 1200-439) was then added to each well of the Measurement Plate. The plate was sealed and stored for 30 minutes in the darkness before radioactivity was quantified in a MicroBeta Scintillation Counter (Perkin Elmer, Wellesley. Mass./United States).

Chain of cRaf (P04049 whole entry, species assumed): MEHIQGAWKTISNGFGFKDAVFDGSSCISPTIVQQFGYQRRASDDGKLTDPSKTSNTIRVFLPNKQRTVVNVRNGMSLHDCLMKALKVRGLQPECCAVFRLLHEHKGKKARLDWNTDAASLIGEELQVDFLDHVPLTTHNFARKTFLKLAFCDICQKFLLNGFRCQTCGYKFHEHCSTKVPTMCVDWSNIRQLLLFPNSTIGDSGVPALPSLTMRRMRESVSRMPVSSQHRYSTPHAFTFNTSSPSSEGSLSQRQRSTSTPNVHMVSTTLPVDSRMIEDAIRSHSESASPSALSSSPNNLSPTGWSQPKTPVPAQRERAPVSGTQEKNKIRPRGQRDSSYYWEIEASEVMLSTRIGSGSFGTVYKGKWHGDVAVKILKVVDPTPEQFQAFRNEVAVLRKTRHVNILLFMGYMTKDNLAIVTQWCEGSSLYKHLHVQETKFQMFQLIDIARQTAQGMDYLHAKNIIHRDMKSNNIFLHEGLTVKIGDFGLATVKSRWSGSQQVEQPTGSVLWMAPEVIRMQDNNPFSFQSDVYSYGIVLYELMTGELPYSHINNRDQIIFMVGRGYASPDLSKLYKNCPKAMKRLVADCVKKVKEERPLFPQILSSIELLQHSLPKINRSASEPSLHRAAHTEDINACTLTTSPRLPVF

Row | inhibition at 10 µM [%] | SMILES
1 | 50 to 90 | Oc1cccc(CNc2cncc(-c3cccc(O)c3F)c2)c1 [Compound 231, 2-Fluoro-3-[5-(3-hydroxy-benzylamino)-pyridin-3-yl]-phenol]
2 | > 90 | O=C(O)c1cccc(-c2cncc(NCc3cccc(O)c3)c2)c1 [Compound 246, 3-[5-(3-Hydroxy-benzylamino)-pyridin-3-yl]-benzoic acid]
3 | 50 to 90 | OCc1ccc(-c2cncc(NCc3cccc(O)c3)c2)cc1 [Compound 229, 3-{[5-(4-Hydroxymethyl-phenyl)-pyridin-3-ylamino]-methyl}-phenol]

The molecules below were run against c-Src (Homo sapiens, UniProt P12931) in the same assay as above. Details: class symbol: % inhibition at 10 μM or IC50.
Assay type: biochemical
Description: as §1, §2, §3

Row | SMILES | Inhibitory effect on target c-Src
4 | Oc1cccc(CNc2cncc(-c3cccc(O)c3F)c2)c1 [Compound 231, 2-Fluoro-3-[5-(3-hydroxy-benzylamino)-pyridin-3-yl]-phenol] | B (B: >90% inhibition at 10 μM enzyme concentration)

The molecules below were run against Abl (Homo sapiens, UniProt P00519) in the same assay as above. Details: 1 h; class symbol: % inhibition at 10 μM or IC50; read-out: Inhibitory effect on target Abl.
Assay type: biochemical
Description: as §1, §2, §3

Chain of Abl (P00519 whole entry, species assumed): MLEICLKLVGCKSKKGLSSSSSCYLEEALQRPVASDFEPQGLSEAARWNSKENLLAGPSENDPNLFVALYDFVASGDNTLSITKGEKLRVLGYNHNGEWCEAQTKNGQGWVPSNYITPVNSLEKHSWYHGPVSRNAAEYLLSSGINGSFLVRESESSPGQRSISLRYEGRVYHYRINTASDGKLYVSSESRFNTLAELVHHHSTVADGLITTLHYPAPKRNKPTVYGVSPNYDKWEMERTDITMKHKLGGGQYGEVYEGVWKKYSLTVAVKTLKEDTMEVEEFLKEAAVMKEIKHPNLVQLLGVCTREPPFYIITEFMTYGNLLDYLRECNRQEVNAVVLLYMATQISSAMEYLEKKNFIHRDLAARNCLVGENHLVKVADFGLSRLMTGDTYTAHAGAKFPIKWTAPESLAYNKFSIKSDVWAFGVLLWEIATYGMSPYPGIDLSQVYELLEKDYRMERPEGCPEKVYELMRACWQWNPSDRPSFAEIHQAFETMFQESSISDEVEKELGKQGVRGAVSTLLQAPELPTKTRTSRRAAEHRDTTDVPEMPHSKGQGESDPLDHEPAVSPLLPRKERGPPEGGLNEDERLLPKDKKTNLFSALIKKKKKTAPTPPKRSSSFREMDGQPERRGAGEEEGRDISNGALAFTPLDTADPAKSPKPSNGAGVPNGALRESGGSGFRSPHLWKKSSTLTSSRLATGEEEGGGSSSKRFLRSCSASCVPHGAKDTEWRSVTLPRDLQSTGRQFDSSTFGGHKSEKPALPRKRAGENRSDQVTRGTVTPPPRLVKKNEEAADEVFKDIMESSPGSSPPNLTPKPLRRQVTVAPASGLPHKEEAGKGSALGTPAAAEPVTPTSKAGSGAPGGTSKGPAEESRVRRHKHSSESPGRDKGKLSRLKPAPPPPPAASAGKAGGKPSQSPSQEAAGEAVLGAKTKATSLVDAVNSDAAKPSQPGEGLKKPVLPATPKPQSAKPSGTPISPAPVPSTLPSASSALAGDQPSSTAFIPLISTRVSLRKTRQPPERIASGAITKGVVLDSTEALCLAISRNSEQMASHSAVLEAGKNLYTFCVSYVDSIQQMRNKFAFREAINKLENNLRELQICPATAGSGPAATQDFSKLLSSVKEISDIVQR

Row | inhibition at 10 µM [%] | SMILES
5 | 50 to 90 | Oc1cccc(CNc2cncc(-c3cccc(O)c3F)c2)c1 [Compound 231, 2-Fluoro-3-[5-(3-hydroxy-benzylamino)-pyridin-3-yl]-phenol]
6 | 50 to 90 | O=C(O)c1cccc(-c2cncc(NCc3cccc(O)c3)c2)c1 [Compound 246, 3-[5-(3-Hydroxy-benzylamino)-pyridin-3-yl]-benzoic acid]
7 | 50 to 90 | OCc1ccc(-c2cncc(NCc3cccc(O)c3)c2)cc1 [Compound 229, 3-{[5-(4-Hydroxymethyl-phenyl)-pyridin-3-ylamino]-methyl}-phenol]

Each molecule was assayed against ROCK 2 (Homo sapiens, UniProt O75116) in the same assay as above. Details: 1 h; class symbol: % inhibition at 10 μM or IC50; read-out: Inhibitory effect on target ROCK 2.
Assay type: biochemical
Description: as §1, §2, §3

Row | inhibition at 10 µM [%] | SMILES
8 | 50 to 90 | OCc1ccc(-c2cncc(NCc3cccc(O)c3)c2)cc1 [Compound 229, 3-{[5-(4-Hydroxymethyl-phenyl)-pyridin-3-ylamino]-methyl}-phenol]

These molecules were tested against EGFR (Homo sapiens, UniProt P00533) in the same assay as above. Details: class symbol: % inhibition at 10 μM or IC50.
Assay type: biochemical
Description: as §1, §2, §3

Chain of EGFR (P00533 25-1210, species assumed): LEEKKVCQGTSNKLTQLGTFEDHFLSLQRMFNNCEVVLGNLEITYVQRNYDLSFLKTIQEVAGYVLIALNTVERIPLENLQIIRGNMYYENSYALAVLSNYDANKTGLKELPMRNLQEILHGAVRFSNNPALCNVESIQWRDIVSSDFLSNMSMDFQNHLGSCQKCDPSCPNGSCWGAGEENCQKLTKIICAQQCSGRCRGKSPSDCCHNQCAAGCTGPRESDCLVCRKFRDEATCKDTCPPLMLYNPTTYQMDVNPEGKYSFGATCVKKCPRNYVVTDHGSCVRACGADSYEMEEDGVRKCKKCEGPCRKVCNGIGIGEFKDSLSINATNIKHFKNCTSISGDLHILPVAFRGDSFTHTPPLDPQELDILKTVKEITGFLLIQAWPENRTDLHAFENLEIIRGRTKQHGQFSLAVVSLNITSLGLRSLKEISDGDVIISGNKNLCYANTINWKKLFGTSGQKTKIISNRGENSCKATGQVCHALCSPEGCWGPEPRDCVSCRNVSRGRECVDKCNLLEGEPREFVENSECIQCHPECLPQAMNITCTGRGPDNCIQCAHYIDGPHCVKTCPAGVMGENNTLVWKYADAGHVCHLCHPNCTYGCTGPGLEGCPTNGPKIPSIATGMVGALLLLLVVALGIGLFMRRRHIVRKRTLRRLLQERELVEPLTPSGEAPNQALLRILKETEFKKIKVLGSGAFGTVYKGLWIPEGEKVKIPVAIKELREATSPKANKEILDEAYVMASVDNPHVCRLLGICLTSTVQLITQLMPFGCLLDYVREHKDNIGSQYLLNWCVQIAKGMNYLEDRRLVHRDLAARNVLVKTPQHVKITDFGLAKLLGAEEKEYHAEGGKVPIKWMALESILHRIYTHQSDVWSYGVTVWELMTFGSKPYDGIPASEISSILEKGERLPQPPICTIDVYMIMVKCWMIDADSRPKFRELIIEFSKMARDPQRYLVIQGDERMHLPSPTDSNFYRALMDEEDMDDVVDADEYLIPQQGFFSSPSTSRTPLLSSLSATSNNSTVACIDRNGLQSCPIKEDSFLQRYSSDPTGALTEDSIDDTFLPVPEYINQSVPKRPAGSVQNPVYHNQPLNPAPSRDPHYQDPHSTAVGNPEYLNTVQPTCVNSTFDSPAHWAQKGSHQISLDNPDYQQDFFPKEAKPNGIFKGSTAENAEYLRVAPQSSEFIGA

Row | SMILES | Inhibitory effect on target EGFR
9 | Oc1cccc(CNc2cncc(-c3cccc(O)c3F)c2)c1 [Compound 231, 2-Fluoro-3-[5-(3-hydroxy-benzylamino)-pyridin-3-yl]-phenol] | A (A: 50-90% inhibition at 10 μM enzyme concentration)
10 | O=C(O)c1cccc(-c2cncc(NCc3cccc(O)c3)c2)c1 [Compound 246, 3-[5-(3-Hydroxy-benzylamino)-pyridin-3-yl]-benzoic acid] | A (A: 50-90% inhibition at 10 μM enzyme concentration)
11 | OCc1ccc(-c2cncc(NCc3cccc(O)c3)c2)cc1 [Compound 229, 3-{[5-(4-Hydroxymethyl-phenyl)-pyridin-3-ylamino]-methyl}-phenol] | A (A: 50-90% inhibition at 10 μM enzyme concentration)

The molecules below were run on PDGFR in the same assay as above. Details: class symbol: % inhibition at 10 μM or IC50.
Assay type: biochemical
Description: as §1, §2, §3

Row | SMILES | Inhibitory effect on target PDGFR
12 | Oc1cccc(CNc2cncc(-c3cccc(O)c3F)c2)c1 [Compound 231, 2-Fluoro-3-[5-(3-hydroxy-benzylamino)-pyridin-3-yl]-phenol] | A (A: 50-90% inhibition at 10 μM enzyme concentration)
13 | O=C(O)c1cccc(-c2cncc(NCc3cccc(O)c3)c2)c1 [Compound 246, 3-[5-(3-Hydroxy-benzylamino)-pyridin-3-yl]-benzoic acid] | A (A: 50-90% inhibition at 10 μM enzyme concentration)
14 | OCc1ccc(-c2cncc(NCc3cccc(O)c3)c2)cc1 [Compound 229, 3-{[5-(4-Hydroxymethyl-phenyl)-pyridin-3-ylamino]-methyl}-phenol] | A (A: 50-90% inhibition at 10 μM enzyme concentration)

Each molecule was assayed against c-kit (Homo sapiens, UniProt P10721) in the same assay as above. Details: 1 h; class symbol: % inhibition at 10 μM or IC50; read-out: Inhibitory effect on target c-kit.
Assay type: biochemical
Description: as §1, §2, §3

Chain of c-kit (P10721 26-976): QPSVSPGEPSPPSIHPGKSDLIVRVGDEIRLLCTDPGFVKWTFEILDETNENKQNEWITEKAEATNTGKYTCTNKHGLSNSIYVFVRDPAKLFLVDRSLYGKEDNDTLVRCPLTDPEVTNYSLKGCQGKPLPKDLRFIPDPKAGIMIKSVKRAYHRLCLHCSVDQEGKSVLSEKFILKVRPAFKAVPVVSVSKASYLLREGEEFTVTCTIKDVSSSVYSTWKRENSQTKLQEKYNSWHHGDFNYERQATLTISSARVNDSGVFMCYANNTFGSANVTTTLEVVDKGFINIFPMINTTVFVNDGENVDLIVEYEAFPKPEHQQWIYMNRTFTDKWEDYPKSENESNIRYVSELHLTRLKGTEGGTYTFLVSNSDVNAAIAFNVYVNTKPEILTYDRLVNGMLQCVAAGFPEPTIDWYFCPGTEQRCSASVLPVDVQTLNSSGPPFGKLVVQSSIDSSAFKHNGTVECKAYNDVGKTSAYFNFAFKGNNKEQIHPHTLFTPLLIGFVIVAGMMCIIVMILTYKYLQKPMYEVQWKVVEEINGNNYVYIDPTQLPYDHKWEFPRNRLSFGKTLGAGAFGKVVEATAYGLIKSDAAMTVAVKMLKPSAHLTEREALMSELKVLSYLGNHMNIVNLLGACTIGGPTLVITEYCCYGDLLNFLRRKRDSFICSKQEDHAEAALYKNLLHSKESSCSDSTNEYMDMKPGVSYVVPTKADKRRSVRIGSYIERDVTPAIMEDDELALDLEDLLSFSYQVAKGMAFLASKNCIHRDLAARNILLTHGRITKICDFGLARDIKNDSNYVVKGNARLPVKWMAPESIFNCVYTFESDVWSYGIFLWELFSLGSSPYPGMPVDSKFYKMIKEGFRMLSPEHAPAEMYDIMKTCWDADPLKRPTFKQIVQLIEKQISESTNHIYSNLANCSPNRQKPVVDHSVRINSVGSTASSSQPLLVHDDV

Row | inhibition at 10 µM [%] | SMILES
15 | 50 to 90 | Oc1cccc(CNc2cncc(-c3cccc(O)c3F)c2)c1 [Compound 231, 2-Fluoro-3-[5-(3-hydroxy-benzylamino)-pyridin-3-yl]-phenol]
16 | 50 to 90 | O=C(O)c1cccc(-c2cncc(NCc3cccc(O)c3)c2)c1 [Compound 246, 3-[5-(3-Hydroxy-benzylamino)-pyridin-3-yl]-benzoic acid]
17 | > 90 | OCc1ccc(-c2cncc(NCc3cccc(O)c3)c2)cc1 [Compound 229, 3-{[5-(4-Hydroxymethyl-phenyl)-pyridin-3-ylamino]-methyl}-phenol]

The molecules below were run against p56Lck (Homo sapiens, UniProt P06239) in the same assay as above. Details: 1 h; class symbol: % inhibition at 10 μM or IC50; read-out: Inhibitory effect on target p56Lck.
Assay type: biochemical
Description: as §1, §2, §3

Chain of p56Lck (P06239 whole entry, species assumed): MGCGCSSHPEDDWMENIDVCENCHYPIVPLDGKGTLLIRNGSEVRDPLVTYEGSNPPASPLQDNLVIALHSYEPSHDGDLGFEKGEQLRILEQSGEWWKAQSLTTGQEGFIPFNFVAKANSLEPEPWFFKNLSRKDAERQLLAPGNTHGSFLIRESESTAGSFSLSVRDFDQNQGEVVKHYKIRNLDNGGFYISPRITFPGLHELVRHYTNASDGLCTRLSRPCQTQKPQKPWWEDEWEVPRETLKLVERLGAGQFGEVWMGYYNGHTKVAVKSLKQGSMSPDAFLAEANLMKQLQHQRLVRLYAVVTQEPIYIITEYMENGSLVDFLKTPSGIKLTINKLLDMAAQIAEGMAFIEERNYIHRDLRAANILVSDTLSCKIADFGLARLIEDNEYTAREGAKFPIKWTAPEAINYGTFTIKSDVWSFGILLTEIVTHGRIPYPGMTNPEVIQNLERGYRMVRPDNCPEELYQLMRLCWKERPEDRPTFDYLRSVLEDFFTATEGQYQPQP

Row | inhibition at 10 µM [%] | SMILES
18 | 50 to 90 | Oc1cccc(CNc2cncc(-c3cccc(O)c3F)c2)c1 [Compound 231, 2-Fluoro-3-[5-(3-hydroxy-benzylamino)-pyridin-3-yl]-phenol]
19 | 50 to 90 | O=C(O)c1cccc(-c2cncc(NCc3cccc(O)c3)c2)c1 [Compound 246, 3-[5-(3-Hydroxy-benzylamino)-pyridin-3-yl]-benzoic acid]
20 | 50 to 90 | OCc1ccc(-c2cncc(NCc3cccc(O)c3)c2)cc1 [Compound 229, 3-{[5-(4-Hydroxymethyl-phenyl)-pyridin-3-ylamino]-methyl}-phenol]

Each molecule was assayed against CDK5/p35 (Homo sapiens, UniProt Q00535) in the same assay as above. Details: class symbol: % inhibition at 10 μM or IC50.
Assay type: biochemical
Description: as §1, §2, §3

Row | SMILES | Inhibitory effect on target CDK5/p35
21 | Oc1cccc(CNc2cncc(-c3cccc(O)c3F)c2)c1 [Compound 231, 2-Fluoro-3-[5-(3-hydroxy-benzylamino)-pyridin-3-yl]-phenol] | A (A: 50-90% inhibition at 10 μM enzyme concentration)

Each molecule was assayed against RICK (Homo sapiens, UniProt O43353) in the same assay as above. Details: class symbol: % inhibition at 10 μM or IC50.
Assay type: biochemical
Description: as §1, §2, §3

Chain of RICK (O43353 whole entry, species assumed): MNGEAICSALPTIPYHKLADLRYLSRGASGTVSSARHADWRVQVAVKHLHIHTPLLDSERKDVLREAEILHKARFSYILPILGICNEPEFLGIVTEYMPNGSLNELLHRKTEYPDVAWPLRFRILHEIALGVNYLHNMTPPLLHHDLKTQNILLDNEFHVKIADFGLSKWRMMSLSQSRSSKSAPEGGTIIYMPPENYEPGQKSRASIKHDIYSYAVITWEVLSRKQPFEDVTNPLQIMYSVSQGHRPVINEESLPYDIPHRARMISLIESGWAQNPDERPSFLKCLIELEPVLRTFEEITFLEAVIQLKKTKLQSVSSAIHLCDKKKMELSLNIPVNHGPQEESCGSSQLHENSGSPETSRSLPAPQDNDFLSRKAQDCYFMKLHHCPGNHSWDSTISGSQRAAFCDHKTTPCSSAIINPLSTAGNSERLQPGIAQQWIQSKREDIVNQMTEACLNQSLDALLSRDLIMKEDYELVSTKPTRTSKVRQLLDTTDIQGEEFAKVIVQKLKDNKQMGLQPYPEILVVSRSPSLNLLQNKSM

Row | Inhibitory effect on target RICK | SMILES
22 | C (C: IC50 measured: <1 μM) | Oc1cccc(CNc2cncc(-c3cccc(O)c3F)c2)c1 [Compound 231, 2-Fluoro-3-[5-(3-hydroxy-benzylamino)-pyridin-3-yl]-phenol]
23 | C (C: IC50 measured: <1 μM) | O=C(O)c1cccc(-c2cncc(NCc3cccc(O)c3)c2)c1 [Compound 246, 3-[5-(3-Hydroxy-benzylamino)-pyridin-3-yl]-benzoic acid]
24 | C (C: IC50 measured: <1 μM) | OCc1ccc(-c2cncc(NCc3cccc(O)c3)c2)cc1 [Compound 229, 3-{[5-(4-Hydroxymethyl-phenyl)-pyridin-3-ylamino]-methyl}-phenol]

What follows are molecules tested against CDK1/CyclinB (Homo sapiens, UniProt P06493) in the same assay as above. Details: class symbol: % inhibition at 10 μM or IC50.
Assay type: biochemical
Description: as §1, §2, §3

Row | SMILES | Inhibitory effect on target CDK1/CyclinB
25 | Oc1cccc(CNc2cncc(-c3cccc(O)c3F)c2)c1 [Compound 231, 2-Fluoro-3-[5-(3-hydroxy-benzylamino)-pyridin-3-yl]-phenol] | A (A: 50-90% inhibition at 10 μM enzyme concentration)
